In ChEMBL document CHEMBL5370593, “Discovery and In Vitro Characterization of SPL028: Deuterated N,N-Dimethyltryptamine” (ACS Med Chem Lett, 2023) one finds inhibition data, which are given here for 1 molecule.

What all share (type): cell-based
In assay [1] the target is 5-hydroxytryptamine receptor 2B (Homo sapiens) (UniProt P41595). Put plainly: Displacement of [3H] LSD from human recombinant 5-HT2B receptor expressed in CHO-K1 cells at 10 uM incubated for 60 mins by spectrophotometric analysis relative to control.
Assay [2] deals with Alpha-2C adrenergic receptor (Homo sapiens) (UniProt P18825). Put plainly: Displacement of [3H]-rauwolscine from human recombinant adrenergic alpha-2c receptor expressed in CHO-K1 cells at 10 uM incubated for 60 mins by […] relative to control. In general terms: In a radioligand displacement assay an active substance lowers the binding of a labelled ligand.

Assay [3] deals with Alpha-1B adrenergic receptor (Homo sapiens) (UniProt P35368). The experiment in a line: Displacement of [3H] prazosin from human recombinant adrenergic alpha-1b receptor expressed in […] cells at 10 uM incubated for 60 mins by spectrophotometric analysis relative to control.
For assay [4], the target named is Alpha-1A adrenergic receptor (Homo sapiens) (UniProt P35348). The experiment in a line: Displacement of [3H] prazosin from human recombinant adrenergic alpha-1a receptor expressed in […] cells at 10 uM incubated for 60 mins by spectrophotometric analysis relative to control.
For assay [5], the target named is Alpha-2B adrenergic receptor (Homo sapiens) (UniProt P18089). Put plainly: Displacement of [3H]-rauwolscine from human recombinant adrenergic alpha-2b receptor expressed in […] cells at 10 uM incubated for 60 mins by […] relative to control.
Assay [6] deals with 5-hydroxytryptamine receptor 1B (Homo sapiens, UniProt P28222). Put plainly: Displacement of [3H] GR125743 from human recombinant 5-HT1B receptor expressed in […] cells at 10 uM incubated for 90 mins by spectrophotometric analysis relative to control.
The target of assay [7] is 5-hydroxytryptamine receptor 5A (Homo sapiens, UniProt P47898). The experiment in a line: Displacement of [3H] LSD from human recombinant 5-HT5A receptor expressed in CHO-K1 cells at 10 uM incubated for 60 mins by spectrophotometric analysis relative to control.
Chain of 5-hydroxytryptamine receptor 5A (P47898 whole entry): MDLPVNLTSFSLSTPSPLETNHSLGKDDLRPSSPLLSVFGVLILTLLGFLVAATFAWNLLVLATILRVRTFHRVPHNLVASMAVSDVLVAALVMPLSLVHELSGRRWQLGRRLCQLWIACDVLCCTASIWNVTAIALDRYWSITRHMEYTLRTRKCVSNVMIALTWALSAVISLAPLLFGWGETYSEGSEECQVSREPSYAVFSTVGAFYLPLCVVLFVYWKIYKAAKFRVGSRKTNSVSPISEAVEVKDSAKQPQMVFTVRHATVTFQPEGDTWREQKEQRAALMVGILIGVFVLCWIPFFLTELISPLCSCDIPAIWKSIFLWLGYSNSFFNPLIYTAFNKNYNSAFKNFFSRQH

Chain of 5-hydroxytryptamine receptor 2B (Homo sapiens) (P41595 whole entry): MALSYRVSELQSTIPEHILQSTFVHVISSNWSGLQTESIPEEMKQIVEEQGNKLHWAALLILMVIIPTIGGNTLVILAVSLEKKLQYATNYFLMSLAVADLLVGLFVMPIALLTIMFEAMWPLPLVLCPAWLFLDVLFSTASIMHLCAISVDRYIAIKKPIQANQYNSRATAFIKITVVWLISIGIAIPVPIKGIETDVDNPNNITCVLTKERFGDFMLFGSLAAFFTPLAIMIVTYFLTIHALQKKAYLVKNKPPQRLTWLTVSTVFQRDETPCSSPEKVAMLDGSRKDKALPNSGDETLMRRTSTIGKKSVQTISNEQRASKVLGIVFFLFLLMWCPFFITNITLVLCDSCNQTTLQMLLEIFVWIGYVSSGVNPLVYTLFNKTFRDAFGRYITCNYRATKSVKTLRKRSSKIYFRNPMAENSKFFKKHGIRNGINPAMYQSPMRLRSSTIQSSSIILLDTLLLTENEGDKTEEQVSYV
Chain of Alpha-2B adrenergic receptor (Homo sapiens) (P18089 whole entry): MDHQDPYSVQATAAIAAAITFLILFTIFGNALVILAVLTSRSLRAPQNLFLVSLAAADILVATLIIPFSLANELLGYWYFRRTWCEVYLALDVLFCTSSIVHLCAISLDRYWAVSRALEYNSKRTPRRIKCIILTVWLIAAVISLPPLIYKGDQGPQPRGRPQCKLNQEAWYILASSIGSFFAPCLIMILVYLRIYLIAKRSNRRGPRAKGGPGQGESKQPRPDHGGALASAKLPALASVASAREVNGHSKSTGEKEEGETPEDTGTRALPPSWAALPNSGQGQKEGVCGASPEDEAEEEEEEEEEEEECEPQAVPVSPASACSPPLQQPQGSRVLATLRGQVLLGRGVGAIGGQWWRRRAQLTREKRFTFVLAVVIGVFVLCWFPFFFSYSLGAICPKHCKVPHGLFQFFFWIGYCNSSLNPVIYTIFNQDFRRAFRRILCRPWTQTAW
Chain of 5-hydroxytryptamine receptor 1B (P28222 whole entry): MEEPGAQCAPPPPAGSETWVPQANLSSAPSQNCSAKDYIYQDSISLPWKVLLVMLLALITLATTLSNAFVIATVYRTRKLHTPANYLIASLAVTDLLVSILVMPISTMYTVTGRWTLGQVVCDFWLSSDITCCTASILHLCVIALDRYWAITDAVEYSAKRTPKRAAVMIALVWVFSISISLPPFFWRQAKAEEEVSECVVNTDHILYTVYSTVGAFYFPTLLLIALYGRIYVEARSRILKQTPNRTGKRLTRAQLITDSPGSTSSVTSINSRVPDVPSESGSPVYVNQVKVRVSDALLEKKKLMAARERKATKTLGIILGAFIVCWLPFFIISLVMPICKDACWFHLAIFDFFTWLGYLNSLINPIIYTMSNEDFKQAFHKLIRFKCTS
Chain of Alpha-1A adrenergic receptor (Homo sapiens) (P35348 whole entry): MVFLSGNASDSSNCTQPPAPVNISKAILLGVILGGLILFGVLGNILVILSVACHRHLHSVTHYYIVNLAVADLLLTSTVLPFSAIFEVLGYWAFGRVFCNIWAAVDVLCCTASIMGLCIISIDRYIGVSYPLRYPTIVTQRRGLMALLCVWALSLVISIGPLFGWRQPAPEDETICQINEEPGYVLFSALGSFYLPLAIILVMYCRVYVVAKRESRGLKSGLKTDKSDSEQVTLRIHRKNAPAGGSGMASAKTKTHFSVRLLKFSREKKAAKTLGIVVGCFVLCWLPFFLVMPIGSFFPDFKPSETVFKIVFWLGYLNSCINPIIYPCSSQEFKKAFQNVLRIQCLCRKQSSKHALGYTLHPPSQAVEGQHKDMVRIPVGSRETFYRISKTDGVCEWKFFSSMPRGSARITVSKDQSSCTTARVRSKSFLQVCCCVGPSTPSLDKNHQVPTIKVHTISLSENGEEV
Chain of Alpha-2C adrenergic receptor (Homo sapiens) (P18825 whole entry): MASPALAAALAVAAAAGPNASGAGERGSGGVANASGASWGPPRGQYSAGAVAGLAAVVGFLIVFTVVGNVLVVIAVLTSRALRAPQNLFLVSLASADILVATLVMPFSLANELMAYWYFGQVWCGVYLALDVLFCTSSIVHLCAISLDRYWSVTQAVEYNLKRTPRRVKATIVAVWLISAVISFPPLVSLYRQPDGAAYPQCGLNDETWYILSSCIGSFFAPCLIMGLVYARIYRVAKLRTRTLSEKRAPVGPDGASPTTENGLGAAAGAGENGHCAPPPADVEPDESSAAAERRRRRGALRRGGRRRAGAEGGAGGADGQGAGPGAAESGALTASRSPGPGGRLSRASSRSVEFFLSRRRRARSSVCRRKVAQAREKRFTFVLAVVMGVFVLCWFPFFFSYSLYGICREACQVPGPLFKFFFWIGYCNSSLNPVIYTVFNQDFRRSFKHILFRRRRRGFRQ
Chain of Alpha-1B adrenergic receptor (Homo sapiens) (P35368 whole entry): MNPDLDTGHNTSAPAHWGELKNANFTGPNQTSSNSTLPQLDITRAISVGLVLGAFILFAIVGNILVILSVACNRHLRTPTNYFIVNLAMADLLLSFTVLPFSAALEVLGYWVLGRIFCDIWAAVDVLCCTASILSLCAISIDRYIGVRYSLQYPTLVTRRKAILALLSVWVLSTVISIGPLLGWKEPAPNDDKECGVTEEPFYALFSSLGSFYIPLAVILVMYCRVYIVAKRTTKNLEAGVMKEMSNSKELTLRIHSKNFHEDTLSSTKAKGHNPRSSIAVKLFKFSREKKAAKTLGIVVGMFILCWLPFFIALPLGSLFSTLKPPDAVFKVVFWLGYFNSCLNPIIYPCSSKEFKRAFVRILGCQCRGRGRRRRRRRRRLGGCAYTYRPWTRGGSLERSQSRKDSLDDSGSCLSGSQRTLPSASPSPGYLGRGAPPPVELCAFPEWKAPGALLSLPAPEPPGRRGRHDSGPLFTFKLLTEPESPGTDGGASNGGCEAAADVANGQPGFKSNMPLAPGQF

Broadly, the inhibition is the relative decrease from the control value, in per cent. For `CN(C)CCc1c[nH]c2ccccc12.O=C(O)/C=C/C(=O)O`, the inhibition came to 95.5% in assay [1]; 96.5% in assay [1] (tested as the 2H-labelled form); 58.4% in assay [2]; 57.6% in assay [2] (tested as the 2H-labelled form); 85.8% in assay [3]; 87.2% in assay [3] (tested as the 2H-labelled form). Moreover, the inhibition is 85.1% in assay [4]; 85.1% in assay [4] (tested as the 2H-labelled form); 81.1% in assay [5]; 79.8% in assay [5] (tested as the 2H-labelled form); 73.1% in assay [6]; 75.5% in assay [6] (tested as the 2H-labelled form). Also, the inhibition turned out to be 72.7% in assay [7] and 70.2% in assay [7] (tested as the 2H-labelled form).
